Experimental data as given in patent publication US20070135515A1, “Method for producing sorbicillactone a” (priority 2004, published 2007).

Experiments:
[1] = test system: L5178Y mouse-lymphoma cells (ATCC CRL 1722); test: Genotoxicity: Fast Microassay (strand scission factors, PicoGreen); assay type: cell-based
Method: Material: PicoGreen was obtained from Molecular Probes (Leiden, The Netherlands), RPMI1640-medium from Sigma-Aldrich (Taufkirchen, Germany), foetal calf serum (FKS) from Gibco (Karlsruhe, Germany), and black microtitre-plates (96-well-plates) from Nunc (Wiesbaden, Germany). Sorbicillactone A of the batch: 2208/2a was used.
Cells: The genotoxicity of sorbicillactone A was tested on L5178Y mouse-lymphoma cells (ATCC CRL 1722). As described (Müller et al., 1979, Cancer Res. 39:1102-1107), the cells were cultured in RPMI1640-medium supplemented with 10% foetal calf serum (FCS). 10^4 cells/mL were chosen as the inoculum concentration. The cells were incubated for 4 and 24 hours with 1, 3, 10, and 30 μg/mL of sorbicillactone A (1). Following the incubation, the cells were examined with the “Fast Microassay”.
“Fast Microassay”: The method was performed according to a modified method (Batel et al., 1999, Anal. Biochem., 270:195-200). The cells were washed with 1×PBS for two times. After centrifugation, the pellet was taken up in 1×PBS and diluted to […]. 25 μl each of the cell suspension (about 2.5×10^4 cells per well) were pre-pipetted into black microtitre-plates (96-well-plates, Nunc, Wiesbaden). 25 μl 1×PBS were in the controls. Then, 25 μl of lysis solution (7 M urea, 0.1% (w/v) SDS, 0.2 M EDTA, pH=10.0) with PicoGreen (20 μl conc. PicoGreen per 1 mL of lysis solution) were pipetted into the microtitre-plate. Subsequently, the cells were lysed for 40 min in the dark at room temperature. After the incubation, the denaturation (unwinding) of the DNA occurs by the addition of freshly prepared alkaline solution. This is produced in that 20 mL 20 mM of EDTA, and 32 mL of 20 mM EDTA/100 mM NaOH are adjusted to a pH-value of 12.3. The measurement took place immediately in a fluoroscan at an excitation wavelength of 485 nm, and an emission wavelength of 520 nm, every 3 to 5 min, 20 min in total. The results were given as “strand scission factors” (SSF), and calculated following a time of denaturation (time of unwinding) of 20 min according to the following equation: SSF=log (% dsDNA-sample/% dsDNA-control).

[2] = test system: L5178Y-mouse lymphoma cells (ATCC CRL 1722); test: Apoptosis detection (Cell Death Detection ELISA plus); assay type: cell-based; details: for MW ± SD (OD) / % of the control (negative): 4 hours incubation; for MW ± SD (OD): 405 nm; for % of the control (negative): negative control = 100%
Method: Material: RPMI1640-medium, Hepes buffered, was obtained from Sigma-Aldrich (Taufkirchen, Germany), foetal calf serum (FCS) from Gibco (Karlsruhe, Germany), and Cell Death Detection ELISA plus from Roche (Mannheim, Germany, Cat. No. 1774425). Sorbicillactone A of the batch: 2208/2a was used.
Incubation and preparation of the cells: The L5178Y-mouse lymphoma cells (ATCC CRL 1722)) were counted, and adjusted to a number of cells of 10^4 cells/mL. The sorbicillactone-A- and dihydrosorbicillactone-A-stock solution (10 mg/mL in DMSO) was diluted with medium (RPMI/Hepes with 10% FCS) to concentrations of 60, 20, and 6 μg/mL. In a 96-well-culture plate, 100 μl cell suspension (˜10^3 cells) were each pipetted to each of the 100 μl of the different dihydrosorbicillactone-A- and sorbicillactone-A-solutions. RPMI1640-medium without dihydrosorbicillactone and sorbicillactone A was used as a negative control. The final concentrations were 30, 10, and 3 μg/mL sorbicillactone A and dihydrosorbicillactone A. Four parallel settings of each sample were analysed. The cells were incubated for 4 hours at 37° C. After the incubation, the culture plate was centrifuged at […] (˜1200 rpm) for 10 min at room temperature. The supernatant was carefully pipetted off, and the cells were each overlayered with 200 μl lysis-buffer (Roche-Kit). Then, the cells were lysed for 30 min at room temperature. After the lysis, the culture plate was again centrifuged at 200×g (˜1200 rpm) for 10 min at room temperature.
ELISA: Two strips with eight wells each were taken from the streptavidin-ELISA-plate of the Roche-kit. 20 μl of the supernatant of a cell-lysis (see above) were added into each well. In doing so, the samples with 30 or 10 μg/mL of sorbicillactone A and dihydrosorbicillactone A were loaded as 4-fold, and all other as duplicate determinations. In addition to these sample, a positive control (DNA-histone-complex) was loaded. Then, 80 μl of immune reagent were added into each well. This solution consisted of incubation buffer, anti-histone-biotin, and anti-DNA-peroxidase. The incubation buffer was used as a blank value. The ELISA-plate was incubated for 2 hours in a shaking incubator at room temperature. Them the supernatants were carefully removed, and the wells were each washed 3× with 250 μl of the incubation buffer. After the washing, 100 μl of ABTS-solution were added into each “well”. Subsequently, the cells were incubated for 30 min in the dark at room temperature. The measurement took place in a multiscan at an emission wavelength of 405 nm.

## C/C=C/C=C/C(O)=C1/C(=O)C(C)=C(O)[C@@]2(C)OC(=O)[C@@](C)(NC(=O)/C=C/C(=O)O)[C@@H]12 [sorbicillactone A]
[1]; 30 μg/mL, 24 hours of incubation
  induction of DNA-strand scissions: induced DNA-strand scissions
[1]; 1, 3, 10, and 30 μg/mL, 4 hours of incubation, FIG. 3A
  effect on the SSF-values (strand scission factors): nearly no effect
[1]; 1 to 10 μg/mL, 24 hours
  increase of the SSF-values: slight, but no significant, increase
[1]; 3 and 30 μg/mL, 24 hours, p<0.001, FIG. 3B
  increase of the SSF-values (portion of DNA-strand scissions): significant increase
[2]; 3 μg/mL
  MW ± SD (OD): 0.062 ± 0.004 OD
  % of the control (negative): 91.2%
[2]; 3 μg/mL, 4 hours of incubation
  increase of apoptosis-cells: did not result in an increase of apoptosis-cells
[2]; 10 μg/mL
  MW ± SD (OD): 0.193 ± 0.010 OD
  % of the control (negative): 283.8%
[2]; 30 μg/mL
  MW ± SD (OD): 0.219 ± 0.024 OD
  % of the control (negative): 322.1%
[2]; 10 and 30 μg/mL, 4 hours of incubation
  induction of apoptosis: induces apoptosis
